A short description of data set [1]: absorbability (bioavailability) of oral formulations in a dog. Particulars: in vivo, during fasting. From the text:
(§1) On the other hand, the present inventors have heretofore conducted various studies on oral formulations of 4-bromo-6-[3-(4-chlorophenyl)propoxy]-5-(3-pyridylmethylamino)-3(2H)-pyridazinone (hereinafter referred to simply as Compound A) or its salt.

Data set [2] in a line: solubility in water as a function of pH. It counts as physicochemical.
Excerpt: as §1

The nature of data set [3]: elution test (paddle method, Japanese Pharmacopoeia Disintegration Test Solutions 1 and 2). It counts as physicochemical. As to the method: The test conditions are as follows. Test solutions: Japanese Pharmacopoeia Disintegration Test Solution 1 (pH 1.2) 900 mL, Japanese Pharmacopoeia Disintegration Test Solution 2 900 mL (pH 6.8)+0.1% Tween 80 Paddle rotational speed: 50 rpm Liquid temperature: 37° C.

We go through two compounds from patent US20090117190A1, “SUSTAINED-RELEASE PREPARATION” (Nissan Chemical Industries, Ltd., priority 2005, published 2009).

By bioavailability is commonly meant dose-corrected exposure relative to a reference, in per cent. High values mean much systemic uptake, low ones little systemic uptake.

Structures can show the parent of a compound that is named as a salt. Bounds are passed on as bounds.

For `O=c1[nH]nc(OCCCc2ccc(Cl)cc2)c(NCc2cccnc2)c1Br` [Compound A, 4-bromo-6-[3-(4-chlorophenyl)propoxy]-5-(3-pyridylmethylamino)-3(2H)-pyridazinone], the bioavailability in data set [1] is around 10%. The “solubility in water, dependence on pH” value in data set [2] (boundary in the vicinity of pH4.0) is given as “decreases in the vicinity of pH4.0 as a boundary”. In data set [2] (in the vicinity of the pH in the intestine), the solubility in water result is reported as “hardly soluble in water”.
As to `O=c1[nH]nc(OCCCc2ccc(Cl)cc2)c(NCc2cccnc2)c1Br` [hydrochloride of Compound A, 4-bromo-6-[3-(4-chlorophenyl)propoxy]-5-(3-pyridylmethylamino)-3(2H)-pyridazinone], the “difference in the elution rate between Solution 1 (pH 1.2) and Solution 2 (pH 6.8) containing 0.1% Tween 80” value in data set [3] (900 mL, 37° C., paddle 50 rpm) is reported as “substantial difference”. Also, in data set [3] (Japanese Pharmacopoeia Disintegration Test Solution 2 (pH 6.8) + 0.1% Tween 80, after 6 hours, 37° C., paddle 50 rpm), the elution rate was below 20%. The “solubility indicated by the elution test” value in data set [3] (in the vicinity of the pH in the intestine (Solution 2 + 0.1% Tween 80)) was “hardly soluble”.
